Assay results as given in patent US9254296B2, “Pharmaceutical composition comprising vitamin D analogue and cosolvent-surfactant mixture” (LEO PHARMA A/S, priority 2009, dated 2016).

How the values were obtained:
[1] = one study, M. Hannuksela et al. 1975; cited from earlier work
[2] = system: gene encoding cathelicidin; experiment: Cathelicidin target gene activation assay on reconstructed human epidermis; format: cell-based; details: 5%, 10% or 15% by weight of glycerol in the composition
From the text: In psoriasis, the level of cathelicidin is increased in lesional skin of psoriasis patients. […] This finding has been utilized to develop an assay in which the uptake and biological activity of calcipotriol in human keratinocytes from the tested compositions has been determined by measuring the level of induction of the gene encoding cathelicidin.
In the assay, compositions A, B, C, F, G, I, J, K, L prepared as described in Example 1 above were applied topically in triplicate on reconstructed human epidermis consisting of normal human keratinocytes cultured for 12 days on 0.5 cm^2 polycarbonate filters (available from SkinEthic® Laboratories, Nice, France) in an amount of 10 μl. The tissue was treated for two days followed by separation of the epidermis from the polycarbonate filter and snap-frozen in liquid nitrogen. RNA was extracted from the cells and cDNA synthesized by conventional procedures. Quantitative real-time PCR (qPCR) was then performed using the following assays from Applied Biosystems: CAMP Hs0018038_ml and GAPDH Hs99999905_ml. The expression levels of cathelicidin were normalized to GAPDH and a relative quantification was made by comparison with Daivonex® ointment.

IL-1α = experiment: Release of IL-1α from calcipotriol ointment containing glycerol; details: 5%, 10%, 15% by weight of glycerol in a calcipotriol ointment

## CC(O)CO (stereo not drawn) [propylene glycol]
[1]
  number of irritant reactions: 12.5%

## OCC(O)CO [glycerol]
[2]
  effect on biological activity of calcipotriol (expression of cathelicidin): potentiating the biological activity of calcipotriol
IL-1α
  release of IL-1α: reduce the release of IL-1α in a dose-dependent manner
